Source: EP4548971A1, “1,4-BENZOTHIAZEPINES AND RELATED COMPOUNDS WITH CYCLOPROPANOL GROUPS AS MULTI-TARGETED DRUGS” (Georg-August-Universität Göttingen Stiftung Öffentlichen …, priority 2023, dated 2025)
“Also recorded” adds a separate entry of the source.

How the values were obtained:
[1] = test system: HL-1 cardiac cells; assay: CytoTox-Glo cytotoxicity assay (cell viability); assay type: cell-based; conditions: CytoTox-Glo assay in 100 µM solutions after 24 h incubation
Procedure: Cell viability was assessed using CytoTox-Glo™ Cytotoxicity Assay according to the manufacturing procedure (Promega GmbH). Briefly, HL-1 cardiac cells were cultivated for 24 h in black-walled, clear-bottom 96-well micro-plates (Corning) covered with fibronectin in DMEM, containing different concentrations of the tested compound (10,000 cells/well). Luminescence of a luminogenic peptide substrate was measured before and after addition of the lysis reagent (digitonin). The viable cell contribution was determined by a subtractive method. 0.1% DMSO treated cell were taken as a control.
(§1) The membrane permeability of the derivatives was determined using cell-free transport models (PermeaPad®, innoME GmbH), and permeability rates (Pe), which are a measure of how fast a compound can cross a membrane, were established (Table 1).

[2] = Membrane permeability, PermeaPad plate (cell-free transport model); assay type: in vitro ADME
Procedure: Membrane permeability was assessed using PermeaPad® Plate according to the manufacturing procedure (innoME GmbH, Espelkamp, Germany). Briefly, 200 µl water was added into acceptor plate. 200 µl of 100 - 500 µM test compound in water was added directly to the well membranes of the donor plate. The donor plate contains a biomimetic membrane for simulating passive mass transfer through different barriers in the body. Then the donor plate was placed into the acceptor plate wells and incubated at room temperature for 24 hours in dark. To determine peak absorbance of test compounds, absorbance spectra of acceptor solutions and initial solutions for each test compound were read out. The Permeability Rate (Pe) was calculated using the formula: Pe = C × −ln(1−(ODA)/(ODE)) cm/s, [formula]
where ODA is the absorbance of acceptor solution, ODE is the absorbance of the standard solution; if the compound is able to permeabilize the membrane and fully reach equilibrium, 250 µM will be the final concentration of solution in the donor and acceptor wells. The coefficient C was calculated using the formula: C = (VD × VA)/((VD+VA) × Area × time), [formula] where VA - acceptor volume (cm^3), VD - donor volume (cm^3), membrane area 0.24 cm^2, time is 86,400 s.
as §1

[3] = target: T1, SERCA2a (Mus musculus, UniProt O55143); assay: Caffeine-induced Ca2+ release assay on HL-1 cells; assay type: cell-based; set-up: key to SERCA2a HL-1 effect class: +++: a strong effect, comparable to or greater than that of a known compounds at a given concentration (25 µM in RyR2 R-CEPIA1er assay, 10 µM in caffeine assay and on microsomal membrane vesicles); ++: moderate effect; +: observable effect; -: no effect
T1 construct: host or cells: HL-1 cardiac cells
T1 sequence (O55143 1-998 isoform O55143-2): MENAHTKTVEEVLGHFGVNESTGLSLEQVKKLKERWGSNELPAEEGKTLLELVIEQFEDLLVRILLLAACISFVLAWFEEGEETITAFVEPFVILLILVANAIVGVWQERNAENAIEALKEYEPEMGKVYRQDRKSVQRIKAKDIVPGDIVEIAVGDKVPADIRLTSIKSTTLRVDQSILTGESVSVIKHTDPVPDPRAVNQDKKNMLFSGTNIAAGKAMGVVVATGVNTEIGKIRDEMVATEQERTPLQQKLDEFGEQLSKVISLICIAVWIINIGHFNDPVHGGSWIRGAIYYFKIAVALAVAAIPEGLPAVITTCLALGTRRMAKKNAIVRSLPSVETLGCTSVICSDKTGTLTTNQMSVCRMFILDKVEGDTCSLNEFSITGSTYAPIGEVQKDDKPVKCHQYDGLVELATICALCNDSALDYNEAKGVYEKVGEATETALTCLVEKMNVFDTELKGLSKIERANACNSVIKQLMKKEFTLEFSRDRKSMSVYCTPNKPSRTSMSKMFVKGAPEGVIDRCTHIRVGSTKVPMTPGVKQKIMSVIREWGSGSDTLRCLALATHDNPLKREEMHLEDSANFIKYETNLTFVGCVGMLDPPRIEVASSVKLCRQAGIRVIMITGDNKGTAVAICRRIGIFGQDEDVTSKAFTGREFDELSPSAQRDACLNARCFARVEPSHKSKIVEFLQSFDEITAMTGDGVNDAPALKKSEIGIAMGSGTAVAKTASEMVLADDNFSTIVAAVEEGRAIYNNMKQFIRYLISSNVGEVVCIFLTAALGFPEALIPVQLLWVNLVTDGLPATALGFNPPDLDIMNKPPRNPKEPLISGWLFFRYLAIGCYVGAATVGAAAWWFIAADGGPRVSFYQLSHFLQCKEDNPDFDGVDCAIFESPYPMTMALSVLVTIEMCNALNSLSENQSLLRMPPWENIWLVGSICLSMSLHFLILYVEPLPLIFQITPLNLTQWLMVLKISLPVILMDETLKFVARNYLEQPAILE
Procedure: HL-1 cardiac cells (SCC065, Merck KGaA, Darmstadt, Germany) were cultivated in Claycomb's Medium (51800C, Merck KGaA, Darmstadt, Germany), supplemented with Glutamax, 10% fetal bovine serum, 0.9% Penicillin/Streptomycin and 0.1 mM Noradrenaline (Merck KGaA, Darmstadt, Germany) on fibronectin/gelatin (Merck KGaA, Darmstadt, Germany) coated culture bottles or plates two days before plating.
HL-1 cardiac cells (50000 per well) were cultivated for 24 h in black-walled, clear-bottom 96-well micro-plates (Corning, Amsterdam, The Netherlands) covered with fibronectin/gelatin (Merck KGaA, Darmstadt, Germany) in a humidified incubator at 37 °C and 5% CO2.
Changes in Ca^2+ concentration were measured on a multiwell plate reader TECAN Spark 20M using FLIPR 6 Calcium Assay Kit from Molecular Devices (Molecular Devices LLC, München, Germany) at 37 °C. The 1000 × stock solutions of the test compounds were prepared in DMSO. 100 µl solution of test compound in Tyrode's solution containing FLIPR Calcium 6 dye was incubated for 2 hours at 37°C and 5% COz in a humidified incubator. The time courses were recorded in each well. Fluorescence was evoked at 485 nm excitation wavelength and read out in a bottom-read mode at 525 nm. Data were recorded every 2 s, exposure - 20 flashes, excitation bandwidth - 10 nm, emission bandwidth - 15 nm. To initiate Ca^2+ influx, 25 µl of 50 mM caffeine solution in Tyrode's solution containing 2 mM CaCl2 was injected in each well (speed 100 µl/s) at 10 s time point, resulting in 10 mM final concentration in the well. The differences between the caffeine induced peak minus basal fluorescence, ΔFCaff, were taken for the analysis. The Tyrode's solution + 0.1 v/v% DMSO was used as a control. The dose response curves were calculated using the software package GraphPad Prism version 8.3.1. All data are presented as mean ± S.D. from 8 independent experiments. Y=Bottom + (Top-Bottom)/(1+10^((LogEC50-X)*HillSlope)) was used where HillSlope describes the steepness of the curve, Top and Bottom are plateaus in the units of the Y axis.
The SERCA2a activity of the compounds was confirmed in two orthogonal biochemical assays: caffeine-induced Ca^2+ release assay and nicotinamide adenine dinucleotide (NADH) assay on microsomal membrane vesicles from mouse heart ventricles (mouse SER) and HEK-293T cells (HEK-293 ER). The effect of caffeine-induced Ca^2+ release in HL-1 cells, immortalized mouse cardiomyocytes, treated with the cytosolic Ca^2+ indicator FLIPR Calcium 6 (Molecular Devices) was investigated.
When caffeine binds to the RyR channel, it interacts with specific amino acids of the protein, and this interaction causes conformational changes in the protein's structure [A. des Georges, O. B. Clarke, R. Zalk, Q. Yuan, K. J. Condon, R. A. Grassucci, W. A. Hendrickson, A. R. Marks, J. Frank, Structural Basis for Gating and Activation of RyR1. Cell 2016, 167, 145 - 157.e17]. This opens the RyR2 channel pore, enabling the mass release of calcium ions from the SER Ca^2+ store.

Pe rating in words (low / medium / high; poor) [2]: medium
Pe ([2]; permeability rate, room temperature, 24 hours): 1.2 10^-6 cm/s
SERCA2a HL-1 effect class ([3]; 10 µM in caffeine assay): -
SMILES: COc1ccc2c(c1)CN(C)CCS2 [Compound S107, reference compound]
Viability [1]: 98%
effect in caffeine-induced Ca^2+ release assay, in words ([3]; HL-1 cells incubated 2 h with compound, 10 mM caffeine): no concentration dependent effect; also recorded: didn't show any effects on SR Ca^2+ content
